Data published in patent publication US20250313533A1, “QUINOLINE CARBOXYLIC ACID ESTER COMPOUND AND PREPARATION METHOD AND USE THEREOF” (priority 2019, published 2025).

Legend:
[1] = test system: pathogenic bacteria causing bacterial angular leaf spot in cucumbers; assay: In vitro bactericidal activity, bacterial angular leaf spot in cucumbers; format: cell-based, pseudomonas; details: read-out: inhibitory rate; for inhibition at 1 ppm: dosage 1 ppm; for inhibition at 5 ppm: dosage 5 ppm
Method: (§1) Under aseptic conditions, equal amounts of NB culture medium were added to test tubes, and fixed amounts of the sample solutions were pipetted into the above test tubes in an ascending order of concentrations, respectively. The mixtures were well mixed and added with equal amounts of a bacterial suspension in log phase.
(§2) Each step of the procedure was repeated 4 times. After mixing, the mixture samples were incubated in the dark in a shaking incubator at 25° C. The OD values were measured when the bacteria were in log phase.

[2] = test system: pathogenic bacteria causing bacterial wilt in tobacco; assay: whole plant or invertebrate; format: cell-based, ralstonia; details: read-out: inhibitory rate
[3] = test system: pathogenic bacteria causing black shank in potatoes; assay: In vitro bactericidal activity, black shank in potatoes; format: cell-based; details: read-out: inhibitory rate; for inhibition at 1 ppm: dosage 1 ppm; for inhibition at 5 ppm: dosage 5 ppm
Method: as §1, §2

[4] = test system: pathogenic bacteria causing stem rot in sweet potatoes; assay: In vitro bactericidal activity, stem rot in sweet potatoes; format: cell-based, dikia; details: read-out: inhibitory rate; for inhibition at 1 ppm: dosage 1 ppm; for inhibition at 5 ppm: dosage 5 ppm
Method: as §1, §2

[5] = test system: pathogenic bacteria causing bacterial blight in rice; assay: whole plant or invertebrate; format: cell-based, xanthomonas; details: read-out: inhibitory rate
[6] = test system: pathogenic bacteria causing fruit blotch in watermelons; assay: In vitro bactericidal activity, fruit blotch in watermelons; format: cell-based, acidovorax; details: read-out: inhibitory rate; for inhibition at 1 ppm: dosage 1 ppm; for inhibition at 5 ppm: dosage 5 ppm
Method: as §1, §2

[7] = test system: pathogenic bacteria causing black rot in Chinese cabbages; assay: In vitro bactericidal activity, black rot in Chinese cabbages; format: cell-based, xanthomonas; details: Xanthomonas, read-out: inhibitory rate; for inhibition at 1 ppm: dosage 1 ppm; for inhibition at 5 ppm: dosage 5 ppm
Method: as §1, §2

[8] = test system: pathogenic bacteria causing bacterial wilt in cassava; assay: organism not typed; format: cell-based; details: read-out: inhibitory rate
[9] = test system: pathogenic bacteria causing fire blight in pears; assay: In vitro bactericidal activity, fire blight in pears; format: cell-based, erwinia; details: Erwinia, read-out: inhibitory rate; for inhibition at 1 ppm: dosage 1 ppm; for inhibition at 5 ppm: dosage 5 ppm
Method: as §1, §2

black shank in potatoes = assay: Living crops in vivo protective activity, potatoes (root irrigation); details: Solanum tuberosum, read-out: efficacy against black shank in potatoes; for pest or weed control at 5 ppm: dosage 5 ppm; for pest or weed control at 10 ppm: dosage 10 ppm
Method: Root irrigation was carried out on the potatoes for tests according to the designed concentration of the agents. The dosage for each plant was 200 mL and was kept consistent (also for the control). The black shank bacteria were inoculated on the second day after the application. The results were investigated according to the disease condition.

cucumber seedlings = assay: Safety for plant growth after application; format: in vivo; details: dosage 200 ppm
Description: Taking indoor potted cucumber seedlings as an example, the influence of the compound disclosed herein on growth rate of plant height, chlorophyll content, leaf area, etc. of crops was mainly evaluated.
The results of safety and health-care effect of the compounds of the present disclosure on cucumber seedlings are shown in the following table 1: […]

[10] = test system: bacterial wilt in tobacco; assay: whole plant or invertebrate; details: Nicotiana tabacum, read-out: efficacy against bacterial wilt in tobacco
[11] = test system: stem rot in sweet potatoes; assay: whole plant or invertebrate; details: read-out: efficacy against stem rot in sweet potatoes
bacterial blight in rice = assay: whole plant or invertebrate; details: Oryza sativa, read-out: efficacy against bacterial blight in rice
[12] = test system: fruit blotch in watermelons; assay: whole plant or invertebrate; details: read-out: efficacy against fruit blotch in watermelons
[13] = test system: soft rot in Chinese cabbages; assay: whole plant or invertebrate; details: 48 h, read-out: efficacy against soft rot in Chinese cabbages

SMILES	inhibition at 1 ppm [1] [%]	inhibition at 5 ppm [1] [%]	inhibition at 1 ppm [2] [%]	inhibition at 5 ppm [2] [%]	inhibition at 1 ppm [3] [%]	inhibition at 5 ppm [3] [%]	inhibition at 1 ppm [4] [%]	inhibition at 5 ppm [4] [%]	inhibition at 1 ppm [5] [%]	inhibition at 5 ppm [5] [%]	inhibition at 1 ppm [6] [%]	inhibition at 5 ppm [6] [%]	inhibition at 1 ppm [7] [%]	inhibition at 5 ppm [7] [%]	inhibition at 1 ppm [8] [%]	inhibition at 5 ppm [8] [%]	inhibition at 1 ppm [9] [%]	inhibition at 5 ppm [9] [%]	pest or weed control at 5 ppm (black shank in potatoes) [%]	pest or weed control at 10 ppm (black shank in potatoes) [%]	other results
O=C(OCCOC1CC1)c1cn(C2CC2)c2cc(Cl)c(F)cc2c1=O [Compound 160]	≥ 80	≥ 90	≥ 80	≥ 90	≥ 80	≥ 90	≥ 80	≥ 90	≥ 80	≥ 90	≥ 80	≥ 90	≥ 80	≥ 90	≥ 80	≥ 90	≥ 80	≥ 90	≥ 80	≥ 90	safety for plant growth (discoloration, necrosis, wilt, malformation) (cucumber seedlings): safe for plant growth; pest or weed control at 5 ppm [10]: ≥ 90%; pest or weed control at 10 ppm [10]: ≥ 90%; pest or weed control at 5 ppm [11]: ≥ 90%; pest or weed control at 10 ppm [11]: ≥ 90%; pest or weed control at 5 ppm (bacterial blight in rice): ≥ 80%; pest or weed control at 10 ppm (bacterial blight in rice): ≥ 90%; pest or weed control at 5 ppm [12]: ≥ 90%; pest or weed control at 10 ppm [12]: ≥ 90%; pest or weed control at 5 ppm [13]: ≥ 80%; pest or weed control at 10 ppm [13]: ≥ 90%
O=C(OCCCCO)c1cn(C2CC2)c2cc(Cl)c(F)cc2c1=O [Compound 177]	≥ 90	≥ 90	≥ 90	≥ 90	≥ 90	≥ 90	≥ 90	≥ 90	≥ 80	≥ 90	≥ 90	≥ 90	≥ 90	≥ 90	≥ 90	≥ 90	≥ 90	≥ 90	≥ 90	≥ 90	safety for plant growth (discoloration, necrosis, wilt, malformation) (cucumber seedlings): safe for plant growth; pest or weed control at 5 ppm [10]: ≥ 90%; pest or weed control at 10 ppm [10]: ≥ 90%; pest or weed control at 5 ppm [11]: ≥ 90%; pest or weed control at 10 ppm [11]: ≥ 90%; pest or weed control at 5 ppm (bacterial blight in rice): ≥ 80%; pest or weed control at 10 ppm (bacterial blight in rice): ≥ 90%; pest or weed control at 5 ppm [12]: ≥ 90%; pest or weed control at 10 ppm [12]: ≥ 90%; pest or weed control at 5 ppm [13]: ≥ 90%; pest or weed control at 10 ppm [13]: ≥ 90%
CCOc1cc2c(cc1F)c(=O)c(C(=O)OCCOC(C)C)cn2C1CC1 [Compound 300]	≥ 90	≥ 90	≥ 90	≥ 90	≥ 90	≥ 90	≥ 90	≥ 90	≥ 90	≥ 90	≥ 90	≥ 90	≥ 90	≥ 90	≥ 90	≥ 90	≥ 90	≥ 90	≥ 90	≥ 90	safety for plant growth (discoloration, necrosis, wilt, malformation) (cucumber seedlings): safe for plant growth; pest or weed control at 5 ppm [10]: ≥ 90%; pest or weed control at 10 ppm [10]: ≥ 90%; pest or weed control at 5 ppm [11]: ≥ 90%; pest or weed control at 10 ppm [11]: ≥ 90%; pest or weed control at 5 ppm (bacterial blight in rice): ≥ 90%; pest or weed control at 10 ppm (bacterial blight in rice): ≥ 90%; pest or weed control at 5 ppm [12]: ≥ 90%; pest or weed control at 10 ppm [12]: ≥ 90%; pest or weed control at 5 ppm [13]: ≥ 90%; pest or weed control at 10 ppm [13]: ≥ 90%
COCCOC(=O)c1cn(C2CC2)c2ccc(Cl)cc2c1=O [Compound 45, 2-methoxyethyl 6-chloro-1-cyclopropyl-4-oxo-1,4-dihydroquinoline-3-carboxylate]	≥ 90	≥ 90	≥ 90	≥ 90	≥ 90	≥ 90	≥ 90	≥ 90	≥ 90	≥ 90	≥ 90	≥ 90	≥ 90	≥ 90	≥ 90	≥ 90	≥ 90	≥ 90	≥ 80	≥ 90	safety for plant growth (discoloration, necrosis, wilt, malformation) (cucumber seedlings): safe for plant growth; pest or weed control at 5 ppm [10]: ≥ 90%; pest or weed control at 10 ppm [10]: ≥ 90%; pest or weed control at 5 ppm [11]: ≥ 90%; pest or weed control at 10 ppm [11]: ≥ 90%; pest or weed control at 5 ppm (bacterial blight in rice): ≥ 80%; pest or weed control at 10 ppm (bacterial blight in rice): ≥ 90%; pest or weed control at 5 ppm [12]: ≥ 90%; pest or weed control at 10 ppm [12]: ≥ 90%; pest or weed control at 5 ppm [13]: ≥ 80%; pest or weed control at 10 ppm [13]: ≥ 90%
